Here are results for 12 molecules from patent US9187428B2, “Substituted dicyanopyridines and use thereof” (Bayer Intellectual Property GmbH, priority 2010, dated 2015).

Molecules are shown by their SMILES. In brackets after ≈: the same amount, converted by molar mass. Structures can show the parent of a compound that is named as a salt. Where two headings read alike, the source gives them in different places.

The target in series [1] is adenosine A1 receptor (Homo sapiens (Human), UniProt P30542). Put plainly: Indirect determination of adenosine agonism by gene expression (luciferase reporter), A1 cells. The series is classed as cell-based. Particulars: CHO cells stably transfected with adenosine A1 receptor; 1 μM forskolin; 50% inhibition of luciferase response. The text has this:
(§1) B-1. Indirect Determination of the Adenosine Agonism by Way of Gene Expression
(§2) Cells of the CHO (Chinese Hamster Ovary) permanent line are transfected stably with the cDNA for the adenosine receptor subtypes A1, A2a and A2b. The adenosine A1 receptors are coupled to the adenylate cyclase by way of Gi proteins, while the adenosine A2a and A2b receptors are coupled by way of Gs proteins. In correspondence with this, the formation of cAMP in the cell is inhibited or stimulated, respectively. After that, expression of the luciferase is modulated by way of a cAMP-dependent promoter. The luciferase test is optimized, with the aim of high sensitivity and reproducibility, low variance and good suitability for implementation on a robot system, by varying several test parameters, such as cell density, duration of the growth phase and the test incubation, forskolin concentration and medium composition. The following test protocol is used for pharmacologically characterizing cells and for the robot-assisted substance screening:
(§3) The stock cultures are grown, at 37° C. and under 5% CO2, in DMEM/F12 medium containing 10% FCS (fetal calf serum) and in each case split 1:10 after 2-3 days. Test cultures are seeded in 384-well plates with 2000 cells per well and grown at 37° C. for approx. 48 hours. The medium is then replaced with a physiological sodium chloride solution (130 mM sodium chloride, 5 mM potassium chloride, 2 mM calcium chloride, 20 mM HEPES, 1 mM magnesium chloride hexahydrate, 5 mM sodium bicarbonate, pH 7.4). The substances to be tested, which are dissolved in DMSO, are pipetted into the test cultures (maximum final concentration of DMSO in the test mixture: 0.5%) in a dilution series of from 5×10^−11 M to 3×10^−6 M (final concentration). 10 minutes later, forskolin is added to the A1 cells and all the cultures are subsequently incubated at 37° C. for four hours. After that, 35 μl of a solution which is composed of 50% lysis reagent (30 mM disodium hydrogenphosphate, 10% glycerol, 3% TritonX100, 25 mM TrisHCl, 2 mM dithiotreitol (DTT), pH 7.8) and 50% luciferase substrate solution (2.5 mM ATP, 0.5 mM luciferin, 0.1 mM coenzyme A, 10 mM tricine, 1.35 mM magnesium sulfate, 15 mM DTT, pH 7.8) are added to the test cultures, which are shaken for approx. 1 minute and the luciferase activity is measured using a camera system. The EC50 values are determined, i.e., the concentrations at which 50% of the luciferase response is inhibited in the case of the A1 cell, and, respectively, 50% of the maximum stimulation with the corresponding substance is achieved in the case of the A2b and A2a cells. […] Pharmacol., 357, 1-9 (1998)].
(§4) Table A below lists the EC50 values of representative working examples for the receptor stimulation on adenosine A1, A2a and A2b receptor subtypes: […]

In series [2] the target is adenosine A2a receptor (Homo sapiens (Human), UniProt P29274). Put plainly: Indirect determination of adenosine agonism by gene expression (luciferase reporter), A2a cells. In kind it is cell-based. Particulars: CHO cells stably transfected with adenosine A2a receptor, 50% of maximum stimulation.
Source text: as §1, §2, §3, §4

The target in series [3] is adenosine A2b receptor (Homo sapiens (Human), UniProt P29275). Put plainly: Indirect determination of adenosine agonism by gene expression (luciferase reporter), A2b cells. The series is classed as cell-based. Conditions: CHO cells stably transfected with adenosine A2b receptor, 50% of maximum stimulation.
Source text: as §1, §2, §3, §4

Series [4] is described as follows: Determination of the solubility. The series is classed as physicochemical. Particulars: kinetic from dmso stock. Here is the method: B-8. Determination of the Solubility
• PBS buffer pH 6.5: 90.00 g of NaCl p.a. (for example from Merck, Art. No. 1.06404.1000), 13.61 g of KH2PO4 p.a. (for example from Merck, Art. No. 1.04873.1000) and 83.35 g of 1 N aqueous sodium hydroxide solution (for example from Bernd Kraft GmbH, Art. No. 01030.4000) are weighed into a 1 liter measuring flask, the flask is filled with distilled water to 1 liter and the mixture is stirred for 1 hour. Using 1 N hydrochloric acid (for example from Merck, Art. No. 1.09057.1000) the pH is then adjusted to 6.5. • PEG/water solution (30:70 v/v): 30 ml of polyethylene glycol 400 (for example from Merck, Art. No. 8.17003.1000) and 70 ml of distilled water are homogenized in a 100 ml measuring flask. • PEG/PBS buffer pH 6.5 (80:20 v/v): 80 ml of polyethylene glycol 400 (for example from Merck, Art. No. 8.17003.1000) and 20 ml of PBS buffer pH 6.5 are homogenized in a 100 ml measuring flask. • Dimethyl sulfoxide (for example from Baker, Art. No. 7157.2500) • Distilled water. Preparation of the Starting Solution (Original Solution):
At least 4 mg of the test substance are weighed accurately into a wide-necked 10 mm screw V vial (from Glastechnik Gräfenroda GmbH, Art. No. 8004-WM-H/V15μ) with fitting screw cap and septum, in a pipetting robot DMSO is added to a concentration of 50 mg/ml and the mixture is shaken for 10 minutes.
Preparation of the Calibration Solutions:
Preparation of the Starting Solution for Calibration Solutions (Stock Solution):
With the aid of a pipetting robot, 10 μl of the original solution are transferred into a microtiter plate and made up with DMSO to a concentration of 600 μg/ml. The sample is shaken until everything has gone into solution.
Calibration Solution 1 (20 μg/ml):
1000 μl of DMSO are added to 34.4 μl of the stock solution, and the mixture is homogenized.
Calibration Solution 2 (2.5 μg/ml):
700 μl of DMSO are added to 100 μl of calibration solution 1, and the mixture is homogenized.
Preparation of the Sample Solutions:
Sample Solution for Solubilities of Up to 5 g/liter in PBS Buffer pH 6.5:
10 μl of the original solution are transferred into a microtiter plate, and 1000 μl of PBS buffer pH 6.5 are added.
Sample Solution for Solubilities of Up to 5 g/liter in PEG/Water (30:70):
10 μl of the original solution are transferred into a microtiter plate, and 1000 μl of PEG/water (30:70) are added.
Sample Solution for Solubilities of Up to 5 g/liter in PEG/PBS Buffer pH 6.5 (80:20):
10 μl of the original solution are transferred into a microtiter plate, and 1000 μl of PEG/PBS buffer pH 6.5 (80:20) are added.
The sample solutions prepared in this manner are shaken at 1400 rpm in a temperature-adjustable shaker (for example Eppendorf Thermomixer comfort Art. No. 5355 000.011 with interchangeable block Art. No. 5362.000.019) at 20° C. for 24 hours. In each case 180 μl are taken from these solutions and transferred into Beckman Polyallomer Centrifuge Tubes (Art. No. 343621). These solutions are centrifuged at about 223 000×g for one hour (for example Beckman Optima L-90K Ultracentrifuge with Type 42.2 Ti Rotor at 42 000 rpm). From each of the sample solutions, 100 μl of the supernatant are removed and diluted 1:5 and 1:100 with DMSO. From each dilution, a sample is transferred into a vessel suitable for HPLC analysis.
The samples are analyzed by RP-HPLC. Quantification is carried out using a two-point calibration curve of the test compound in DMSO. The solubility is expressed in mg/liter. Analysis sequence: 1) calibration solution […]; 2) calibration solution […]; 3) sample solution 1:5; 4) sample solution 1:100. […]

Where [5] appears, read: PEG 400/water solution (30:70 v/v), aqueous with cosolvent or surfactant or cyclodextrin, PEG 400/water (30:70 v/v), 20° C., read-out: Solubility [mg/liter] PEG/water solution (30:70 v/v).
Setting [6] is: aqueous buffer, PBS buffer pH 6.5, 20° C., read-out: Solubility [mg/liter] PBS buffer.

adenosine A1 receptor, sequence (P30542 whole entry): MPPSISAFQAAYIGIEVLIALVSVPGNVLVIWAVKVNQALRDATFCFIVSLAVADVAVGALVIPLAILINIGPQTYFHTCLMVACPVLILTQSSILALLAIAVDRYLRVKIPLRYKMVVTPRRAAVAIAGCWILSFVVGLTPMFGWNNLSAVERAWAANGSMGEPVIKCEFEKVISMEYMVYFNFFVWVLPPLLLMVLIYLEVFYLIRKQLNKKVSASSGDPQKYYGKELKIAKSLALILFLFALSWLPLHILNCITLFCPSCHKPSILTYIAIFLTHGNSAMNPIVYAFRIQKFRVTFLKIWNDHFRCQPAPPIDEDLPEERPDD
adenosine A2a receptor, sequence (P29274 whole entry): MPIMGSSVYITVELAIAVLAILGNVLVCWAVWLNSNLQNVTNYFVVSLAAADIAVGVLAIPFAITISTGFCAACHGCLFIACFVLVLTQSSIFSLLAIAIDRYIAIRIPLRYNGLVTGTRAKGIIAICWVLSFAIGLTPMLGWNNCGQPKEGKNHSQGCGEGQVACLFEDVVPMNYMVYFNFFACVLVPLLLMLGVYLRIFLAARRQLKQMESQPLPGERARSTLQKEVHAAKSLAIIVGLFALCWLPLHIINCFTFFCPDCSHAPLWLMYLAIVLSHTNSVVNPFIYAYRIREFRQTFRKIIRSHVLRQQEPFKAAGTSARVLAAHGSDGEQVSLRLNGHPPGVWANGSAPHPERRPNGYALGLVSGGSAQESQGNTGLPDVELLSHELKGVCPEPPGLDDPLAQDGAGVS
adenosine A2b receptor, sequence (P29275 whole entry): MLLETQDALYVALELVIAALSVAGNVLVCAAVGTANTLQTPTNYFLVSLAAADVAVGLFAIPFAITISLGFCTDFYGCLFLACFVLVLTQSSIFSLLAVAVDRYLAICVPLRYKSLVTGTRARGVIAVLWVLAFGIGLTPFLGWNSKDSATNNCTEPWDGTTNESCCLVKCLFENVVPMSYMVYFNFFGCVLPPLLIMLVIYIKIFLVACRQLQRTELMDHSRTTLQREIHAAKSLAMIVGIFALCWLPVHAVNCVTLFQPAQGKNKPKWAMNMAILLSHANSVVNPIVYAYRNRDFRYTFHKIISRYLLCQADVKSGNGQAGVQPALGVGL

For `N#Cc1c(N)nc(SCc2ccnc(C(=O)NC3CC3)c2)c(C#N)c1-c1ccccc1` [Example 13], the values for the EC50 in series [1], in series [2] and in series [3] were 0.08 nM, 108 nM and 46 nM, respectively. Moreover, the solubility at 24 h in series [4] (setting [5]) stood at 210 mg/L (≈ 492 µM).
With `N#Cc1c(N)nc(SCc2cccc(C(N)=O)c2)c(C#N)c1-c1ccccc1` [Example 33], the figures for the EC50 in series [1], in series [2] and in series [3] were 0.3 nM, 117 nM and 3.9 nM, respectively. For the same molecule, the results for the solubility at 24 h in series [4] (setting [5]) and in series [4] (setting [6]) were 53 mg/L (≈ 138 µM) and 5 mg/L (≈ 13 µM), respectively.
Take `CNC(=O)c1cc(CSc2nc(N)c(C#N)c(-c3ccc(OCCN)cc3)c2C#N)ccn1` [Example 54, 4-[({6-Amino-4-[4-(2-aminoethoxy)phenyl]-3,5-dicyanopyridin-2-yl}sulfanyl)methyl]-N-methylpyridine-2-carboxamide trifluoroacetate]: the EC50 in series [1] was 0.04 nM; in series [2], 114 nM; in series [3], 169 nM.
As to `CNC(=O)c1cc(CSc2nc(N)c(C#N)c(-c3ccc(OCCNC(=O)[C@H](C)N)cc3)c2C#N)ccn1` [Example 55, 4-{[(4-{4-[2-(L-Alanylamino)ethoxy]phenyl}-6-amino-3,5-dicyanopyridin-2-yl)sulfanyl]methyl}-N-methylpyridine-2-carboxamide trifluoroacetate], the EC50 was 0.4 nM in series [1], 402 nM in series [2] and 268 nM in series [3].
Take `N#Cc1c(N)nc(OCc2ccnc(C(=O)NC3CC3)c2)c(C#N)c1-c1ccccc1` [Example 68]: the EC50 in series [1] worked out at 0.4 nM; in series [2] it was 1740 nM; in series [3] it was 440 nM.
Regarding `CNC(=O)c1cc(CSc2nc(N3CC(O)C3)c(C#N)c(-c3ccccc3)c2C#N)ccn1` [Example 70, 4-({[3,5-Dicyano-6-(3-hydroxyazetidin-1-yl)-4-phenylpyridin-2-yl]sulfanyl}methyl)-N-methylpyridine-2-carboxamide], the concentration giving a half-maximal response (EC50) was found to be 0.2 nM in series [1], 272 nM in series [2] and 1450 nM in series [3].
In the case of `CNC(=O)c1cc(CSc2nc(N(C)CCO)c(C#N)c(-c3ccccc3)c2C#N)ccn1` [Example 75, 4-[({3,5-Dicyano-6-[(2-hydroxyethyl)(methyl)amino]-4-phenylpyridin-2-yl}sulfanyl)methyl]-N-methylpyridine-2-carboxamide], the figures for the EC50 in series [1], in series [2] and in series [3] were 0.2 nM, 1010 nM and 175 nM, respectively.
With `CNC(=O)c1cc(CSc2nc(NCCO)c(C#N)c(-c3ccc(OCCO)nc3)c2C#N)ccn1` [Example 78], the results for the EC50 in series [1], in series [2] and in series [3] were 0.1 nM, 355 nM and 393 nM, respectively.
Taken in the same sequence, the figures for `CNC(=O)c1cc(CSc2nc(NC[C@H](O)CO)c(C#N)c(-c3ccccc3)c2C#N)ccn1` [Example 83] were 0.2 nM, 2180 nM and 593 nM.
For `CCNC(=O)c1cccc(CSc2nc(N3CCCC3)c(C#N)c(-c3ccc(OCCO)cc3)c2C#N)c1` [Example 98, 3-[({3,5-Dicyano-4-[4-(2-hydroxyethoxy)phenyl]-6-pyrrolidin-1-ylpyridin-2-yl}sulfanyl)methyl]-N-ethylbenzenecarboxamide], the EC50 was determined as 0.3 nM in series [1], 1540 nM in series [2] and 600 nM in series [3].
For the molecule `N#Cc1c(NC[C@@H](O)CO)nc(SCc2cccc(C(N)=O)c2)c(C#N)c1-c1ccccc1` [Example 99, 3-{[(3,5-Dicyano-6-{[(2R)-2,3-dihydroxypropyl]amino}-4-phenylpyridin-2-yl)sulfanyl]methyl}-benzenecarboxamide], in series [1], the EC50 was found to be 0.9 nM. The solubility at 24 h in series [4] (setting [5]) was 440 mg/L (≈ 957 µM); in series [4] (setting [6]), 9 mg/L (≈ 19.6 µM).
Regarding `N#Cc1c(N)nc(SCc2cccc(C(=O)NCCN)c2)c(C#N)c1-c1ccccc1` [Example 101, 3-{[(6-Amino-3,5-dicyano-4-phenylpyridin-2-yl)sulfanyl]methyl}-N-(2-aminoethyl)benzenecarboxamide hydrochloride], the EC50 came to 0.2 nM in series [1], 440 nM in series [2] and 163 nM in series [3].
